Laboratory results: patent US5567693A, “Method for inhibiting angiogenesis, proliferation of endothelial or tumor cells and tumor growth” (American Cyanamid Company, priority 1994, dated 1996)
Structures can show the parent of a compound that is named as a salt. Where two headings read alike, the source gives them in different places.

What was measured:
Assay type in all cases: cell-based
SW620 = test: Antiproliferative activity in human tumor cell lines: SW620 (colon)
Procedure: (§1) The antiproliferative activity of the compounds of Formula I in an Adult Bovine Aortic Endothelial (ABAE) cell line and in Human Tumor cell lines is evaluated in three similar assays that measure growth inhibition. The assays are identified as follows:
(§2) PROTOCOL 1,2,and 3 are described in greater detail hereinbelow. In general, according to PROTOCOLS 1 and 2, the target ABAE and/or Human Tumor cells are exposed to the compounds of Formula I for 48 hours. PROTOCOL 3 exposes ABAE cells to the compounds for 4 days. A detailed description of the protocols is as follows:
(§3) The antiproliferative activity of the compounds of Formula I of the present invention is evaluated in a panel comprised of human tumor cell lines and an adult bovine aortic endothelial cell line (ABAE). The human tumor cell lines are from
(§4) All cell lines are maintained in log phase in RPMI 1640 media, supplemented with 5% fetal calf serum, penicillin/streptomycin and 2 mM L-glutamine. Cultures are renewed after 20 passages with cells from a fresh stock of batch-frozen early passage cells. Cell lines are routinely checked for mycoplasma contamination (Genprobe). In a laminar flow hood, cells (1-5×10^4) are plated into 96-well microtiter plates in a volume of 0.1 ml/well with a bulk microtiter dispenser (Denley). […] At this concentration, dimethylsulfoxide has no effect on cell growth. Compounds are added using a Tomtec dispenser which simultaneously dispenses from one 96-well plate, containing the drug dilutions, to the plates containing the cells. After two days of continuous drug exposure, 50% cold trichloroacetic acid (TCA) is added to 10% final concentration to fix the cells, and after 60 minutes at 4° C., the TCA is aspirated and the plates are washed 5 times with deionized water using a microtiter plate washer. The number of cells on the plate are quantitated using a protein dye-binding assay (Monks et al., 1991). A 0.4% solution of the dye, sulforhodamine B, in glacial acetic acid is added to the plates, and the plates are washed 5 times with 1% glacial acetic acid using the automatic plate washed. The bound stain is solubilized with 0.1 ml of 10 mM Tris base. The optical densities are read from an automatic spectrophotometric plate reader (Dynatech) directly to a main frame computer (VAX 8600).
(§5) Positive controls, that include standard chemotherapeutic drugs (i.e., Adriamycin, Cisplatin, etc.), are included in every experiment.
(§6) Background optical density measurements (complete media-cells, and complete media+drug-cells) are automatically subtracted from the appropriate control and test wells. Mean values and standard errors are determined from duplicate wells. A measure is also made of the optical density at time when the drugs are added. The number of cells after treatment (P), as % of control, is calculated for every concentration of drug, as follows: [formula] wherein: T is optical density measurement for treated cells after 48 hours;
(§7) C is optical density measurement for untreated cells after 48 hours;
(§8) Co is optical density measurement for cells at the time of drug addition.
(§9) IC50 of growth inhibition is calculated from the sets of P values using the RS-1 data package (BBN Software).
(§10) The antiproliferative activity of the compounds of Formula I is evaluated in a panel comprised of human tumor cell lines and an adult bovine aortic cell line (ABAE) as listed in PROTOCOL 1. This assay is a modification of PROTOCOL 1. The modifications include:
(§11) 1) each concentration for each compound is tested in a single well;
(§12) 2) compounds are tested at 20, 4, 0.8, 0.16 microgram/ml and additionally in some experiments at 100 and 0.32 microgram/ml;
(§13) 3) samples are pipetted into a 96-well plate for each of the cell lines by a Beckman Biomek 1000 SL robot;
(§14) 4) after fixing with TCA each well is washed with 0.35 ml distilled water twice, not five times;
(§15) 5) after staining with sulforhodamine B each well is washed 3 times, not five times; […]

CACO2 = test: Antiproliferative activity in human tumor cell lines: CACO2 (colon); conditions: Homo sapiens
Procedure: as §1, §2, §3, §4, §5, §6, §7, §8, §9, §10, §11, §12, §13, §14, §15

HTB 161 = test: Antiproliferative activity in human tumor cell lines: HTB 161 (ovarian); conditions: HTB 161 ovarian tumor, PROTOCOL 1 and PROTOCOL 2, 48 hours
Procedure: The assays are identified as follows:
as §2, §3
Cultures are renewed after 20 passages with cells from a fresh stock of batch-frozen early passage cells. Cell lines are routinely checked for mycoplasma contamination (Genprobe). In a laminar flow hood, cells (1-5×10^4) are plated into 96-well microtiter plates in a volume of 0.1 ml/well with a bulk microtiter dispenser (Denley). […] Compounds are added using a Tomtec dispenser which simultaneously dispenses from one 96-well plate, containing the drug dilutions, to the plates containing the cells. After two days of continuous drug exposure, 50% cold trichloroacetic acid (TCA) is added to 10% final concentration to fix the cells, and after 60 minutes at 4° C., the TCA is aspirated and the plates are washed 5 times with deionized water using a microtiter plate washer. […] A 0.4% solution of the dye, sulforhodamine B, in […] is added to the plates, and the plates are washed 5 times with 1% glacial acetic acid using the automatic plate washed. The bound stain is solubilized with 0.1 ml of 10 mM Tris base. The optical densities are read from an automatic spectrophotometric plate reader (Dynatech) directly to a main frame computer (VAX 8600).
as §5, §6, §7, §8, §9, §10, §11, §12, §13, §14
5) after staining with sulforhodamine B each well is washed 3 times, not five times;
6) the growth inhibition (I) as % of control, is calculated using the RS-1 data package (BBN Software), for every concentration of drug, as follows: [formula] wherein: T is optical density measurement for treated cells after 48 hours;
7) IC50 of growth inhibition is determined graphically from dose response curves, as is known in the art.

[1] = SW-620, SW620 colon tumor, PROTOCOL 1 and PROTOCOL 2, 48 hours, read-out: IC50
[2] = Caco-2, CACO2 colon tumor, PROTOCOL 1 and PROTOCOL 2, 48 hours, read-out: IC50

| SMILES | IC50 (SW620; [1]) [µg/mL] | IC50 (CACO2; [2]) [µg/mL] | IC50 (HTB 161) [µg/mL] | IC50 (CACO2; Caco-2, 48 h) [µg/mL] | IC50 (SW620; SW-620, 48 h) [µg/mL] |
| --- | --- | --- | --- | --- | --- |
| CN(C)CC(=O)Nc1c(Cl)cc2c(c1O)C(=O)C1=C(O)[C@]3(O)C(=O)C(C(N)=O)=C(O)[C@@H](N(C)C)C3CC1C2 (stereo partly drawn) [Example 3, [4S-(45, 12aα)]-8-Chloro-4-(dimethylamino)-9[[(dimethylamino)acetyl]amino]-1,4,4a,5,5a,6,11,12a-octahydro-3,10,12,12a-tetrahydroxy-1,11-dioxo-2-naphthacenecarboxamide disulfate] | 2.3 | 1.65 | 1 | – | – |
| CCCCNCC(=O)Nc1c(Cl)cc2c(c1O)C(=O)C1=C(O)[C@]3(O)C(=O)C(C(N)=O)=C(O)[C@@H](N(C)C)C3CC1C2 (stereo partly drawn) [Example 4, [4S-(4α, 12aα)]-9-[[(Butylamino)acetyl]amino]-8-chloro-4-(dimethylamino) -1,4,4a,5,5a,6,11,12a-octahydro-3,10,12,12a-tetrahydroxy-1,11-dioxo-2-naphthacenecarboxamide dihydrochloride] | 2.8 | 2.5 | 1.2 | – | – |
| CCCNCC(=O)Nc1c(Cl)cc2c(c1O)C(=O)C1=C(O)[C@]3(O)C(=O)C(C(N)=O)=C(O)[C@@H](N(C)C)C3CC1C2 (stereo partly drawn) [Example 5, [4S-(4α, 12aα)]-8-Chloro-4-(dimethylamino)-1,4,4a,5,5a, 6,11,12a-octahydro-3,10,12,12a-tetrahydroxy-1,11-dioxo-9-[[(propylamino)acetyl]amino]-2-naphthacenecarboxamide dihydrochloride] | 3.5 | – | 4 | 4 | – |
| CCCCCNCC(=O)Nc1c(Cl)cc2c(c1O)C(=O)C1=C(O)[C@]3(O)C(=O)C(C(N)=O)=C(O)[C@@H](N(C)C)C3CC1C2 (stereo partly drawn) [Example 6, [4S-(4α, 12aα)]-8-Chloro-4-(dimethylamino)-1,4,4a,5,5a,6,11,12a-octahydro-3,10,12,12a-tetrahydroxy-1,11-dioxo-9-[[(pentylamino)acetyl]amino]-2-naphthacenecarboxamide dihydrochloride] | – | 0.7 | 0.5 | – | 0.8 |
| CNCC(=O)Nc1c(Cl)cc2c(c1O)C(=O)C1=C(O)[C@]3(O)C(=O)C(C(N)=O)=C(O)[C@@H](N(C)C)C3CC1C2 (stereo partly drawn) [Example 7, [4S-(4α, 12aα)]-8-Chloro-4-(dimethylamino)-1,4,4a,5,5a,6,11,12a-octahydro-3,10,12,12a-tetrahydroxy-1,11-dioxo-9-[[(methylamino)acetyl]amino]-2-naphthacenecarboxamide dihydrochloride] | 4 | 3.8 | 1.3 | – | – |
| CN(C)[C@@H]1C(O)=C(C(N)=O)C(=O)[C@@]2(O)C(O)=C3C(=O)c4c(cc(Cl)c(NC(=O)CNCC5CC5)c4O)CC3CC12 (stereo partly drawn) [Example 8, [4S-(4α,12aα)]-8-Chloro-9-[[(cyclopropylmethylamino)-acetyl]amino]4-(dimethylamino)-1,4,4a,5,5a,6,11,12a-octahydro-3,10,12,12a-tetrahydroxy-1,11-dioxo-2-naphthacenecarboxamide dihydrochloride] | 2.4 | 2.8 | 1 | – | – |
| CN(C)[C@@H]1C(O)=C(C(N)=O)C(=O)[C@@]2(O)C(O)=C3C(=O)c4c(cc(Cl)c(NC(=O)CN5CCCC5)c4O)CC3CC12 (stereo partly drawn) [Example 9, [7S-(7α,10aα)]-N-[9-(Aminocarbonyl)-3-chloro-7-(dimethylamino)-5,5a,6,6a,7,10,10a,12-octahydro-1,8,10a,11-tetrahydroxy-10,12-dioxo-2-naphthacenyl]-1-pyrrolidineacetamide dihydrochloride] | – | 1.7 | 1.9 | – | 2 |
| CN(C)[C@@H]1C(O)=C(C(N)=O)C(=O)[C@@]2(O)C(O)=C3C(=O)c4c(cc(Cl)c(NC(=O)CN5CCCCC5)c4O)CC3CC12 (stereo partly drawn) [Example 10, 7S-(7α,10aα)]-N-[9-(Aminocarbonyl)-3-chloro-7-(dimethylamino)-5,5a,6,6a,7,10,10a,12-octahydro-1,8,10a,11-tetrahydroxy-10,12-dioxo-2-naphthacenyl]-1-piperidineacetamide dihydrochloride] | – | 0.65 | 0.6 | – | 0.6 |
| CN(C)c1c(Cl)cc(O)c2c1CC1CC3[C@H](N(C)C)C(O)=C(C(N)=O)C(=O)[C@@]3(O)C(O)=C1C2=O (stereo partly drawn) [Example 11, [4S-(4α,12aα)]-8-Chloro-4,7-bis(dimethylamino)-1,4,4a,5,5a,6,11,12a-octahydro-3,10,12,12a-tetrahydroxy-1,11-dioxo-2-naphthacenecarboxamide sulfate] | 4.5 | 3.6 | 0.7 | – | – |
